From patent EP0126344A2, “Tripeptide esters of therapeutic agents” (ABBOTT LABORATORIES, priority 1983, dated 1984)

Key:
[1] = test system: Staph. aureus, strain 642a; test: In vivo activity: survival of infected mice, subcutaneous administration (Example 28); details: for ED50: Staphylococcus aureus, 642A, sc, 120 h, subcutaneous administration, mice infected with 100 x LD50 Staph. aureus, read-out: effective dose (ED50); for Mice Surviving: groups of ten mice, five days after infection
Protocol: (§1) Eight groups of ten female CF-1 mice, each weighing 18-20 g. were supplied with food and water ad lib and injected intraperitoneally with a lethal dose (100 x LD50) of Staph. aureus, strain 642a. At 1 and 5 hours after intraperitoneal infection, the mice were administered by intraperitoneal injection equal doses of either erythromycin A ("A") or 4"-L-leu-gly-L-pro-erythromycin A ("B") dissolved in a phosphate buffered saline solution.
The procedure of Example 25 was repeated except that the erythromycin A and 4"-L-leu-gly-L-pro-erythromycin A were administered subcutaneously instead of intraperitoneally.

[2] = test system: Staph. aureus, strain 642a; test: In vivo activity: survival of infected mice, intraperitoneal administration (Example 27); details: for ED50: Staphylococcus aureus, 642A, ip, 120 h, intraperitoneal injection, mice infected with 100 x LD50 Staph. aureus, read-out: effective dose (ED50); for Mice Surviving: 5 days after infection
Protocol: as §1

[3] = test system: Staph. aureus, strain 642a; test: In vivo activity: survival of infected mice, oral administration (Example 29); details: after 0.5 ml homogenized milk; for ED50: Staphylococcus aureus, 642A, 120 h, oral administration, mice infected with 100 x LD50 Staph. aureus, read-out: effective dose (ED50); for Mice Surviving: groups of ten mice, five days after infection
Protocol: as §1
The procedure of Example 25 was repeated except that the erythromycin A and 4"-L-leu-gly-L-pro erythromycin A were administered orally, and that 0.5 ml of homogenized milk was administered orally to each mouse prior to administration of the test compound to minimize acid degredation of the test compound.

[4] = test system: gastrointestinal tissue; test: Gastrointestinal motility in anesthetized dogs, strain gauge transducers (Example 30); details: 1.0 mg./kg. intravenously; strain gauge readings; result in words
Protocol: Female beagle dogs having a weight of 7.0 to 11.0 kg. were anesthetized with pentobarbital and maintained in surgical anesthesia by supplemental I.V. injections of pentobarbital as needed. The body temperature of each dog was maintained at 36-37° C. The trachea was cannulated and the animal maintained on a respirator at 12 strokes/minute with a volume of 200 ml./stroke. The femoral artery was cannulated for blood pressure recording and both femoral veins were cannulated for intravenous injections and blood collection. Each dog was then prepared for gastrointestinal motility determinations as follows. […]
After an equilibration period of 15 minutes, a dose of 50 pg/.kg. of methacholine was administered intravenously to the dog over a period of thirty seconds and the strain gauge readings were monitored to obtain a standard measurement of reactivity of the gastrointestinal tract.
The strain gauge readings were again monitored to determine effect of the test compound on motility of the gastrointestinal tissue.

`CC[C@H]1OC(=O)[C@H](C)[C@@H](O[C@H]2C[C@@](C)(OC)[C@@H](OC(=O)[C@@H]3CCCN3C(=O)CNC(=O)[C@@H](N)CC(C)C)[C@H](C)O2)[C@H](C)[C@@H](O[C@@H]2O[C@H](C)C[C@H](N(C)C)[C@H]2O)[C@](C)(O)C[C@@H](C)C(=O)[C@H](C)[C@@H](O)[C@]1(C)O` [B, 4"-L-leu-gly-L-pro-erythromycin A] was tested, and the ED50 [1] was 3.1 mg/kg, the “Mice Surviving” value ([1]; total dose 0.6 mg/kg subcutaneous) was 2 and the “Mice Surviving” value ([1]; total dose 2.6 mg/kg subcutaneous) was 5. For the same compound, the “Mice Surviving” value ([1]; total dose 10.5 mg/kg subcutaneous) was 6, the “Mice Surviving” value ([1]; total dose 41.1 mg/kg subcutaneous) was 10 and the ED50 [2] was 0.6 mg/kg. The “Mice Surviving” value ([2]; total dose 0.6 mg/kg intraperitoneal, groups of ten mice) was 5, the “Mice Surviving” value ([2]; total dose 2.6 mg/kg intraperitoneal, groups of ten mice) was 10 and the “Mice Surviving” value ([2]; total dose 10.5 mg/kg intraperitoneal, groups of ten mice) was 10. The “Mice Surviving” value ([2]; total dose 41.1 mg/kg intraperitoneal, groups of ten mice) was 10, the ED50 [3] was 181 mg/kg and the “Mice Surviving” value ([3]; total dose 3.2 mg/kg oral) was 0. The “Mice Surviving” value ([3]; total dose 12.8 mg/kg oral) was 0, the “Mice Surviving” value ([3]; total dose 51.3 mg/kg oral) was 0 and the “Mice Surviving” value ([3]; total dose 205 mg/kg oral) was 6.

`CC[C@H]1OC(=O)[C@H](C)[C@@H](O[C@H]2C[C@@](C)(OC)[C@@H](O)[C@H](C)O2)[C@H](C)[C@@H](O[C@@H]2O[C@H](C)C[C@H](N(C)C)[C@H]2O)[C@](C)(O)C[C@@H](C)C(=O)[C@H](C)[C@@H](O)[C@]1(C)O` [Erythromycin Lactobionate, erythromycin A lactobionate] was tested, and the “effect of the test compound on motility of the gastrointestinal tissue” value [4] was “pronounced stimulation of the stomach, duodenum, jejunum and ileum, with no apparent effect on the colon”.

In the case of `CC[C@H]1OC(=O)[C@H](C)[C@@H](O[C@H]2C[C@@](C)(OC)[C@@H](O)[C@H](C)O2)[C@H](C)[C@@H](O[C@@H]2O[C@H](C)C[C@H](N(C)C)[C@H]2O)[C@](C)(O)C[C@@H](C)C(=O)[C@H](C)[C@@H](O)[C@]1(C)O` [A, erythromycin A], the ED50 [1] is reported as 2.8 mg/kg, the “Mice Surviving” value ([1]; total dose 0.4 mg/kg subcutaneous) is reported as 1 and the “Mice Surviving” value ([1]; total dose 1.9 mg/kg subcutaneous) is reported as 1. For the same compound, the “Mice Surviving” value ([1]; total dose 7.5 mg/kg subcutaneous) was 10, the “Mice Surviving” value ([1]; total dose 30 mg/kg subcutaneous) was 10 and the ED50 [2] was less than 0.4 mg/kg. For the same compound, the “Mice Surviving” value ([2]; total dose 0.4 mg/kg intraperitoneal, groups of ten mice) was 9, the “Mice Surviving” value ([2]; total dose 1.9 mg/kg intraperitoneal, groups of ten mice) was 9 and the “Mice Surviving” value ([2]; total dose 7.5 mg/kg intraperitoneal, groups of ten mice) was 10. For the same compound, the “Mice Surviving” value ([2]; total dose 30 mg/kg intraperitoneal, at 1 and 5 hours after infection, groups of ten female CF-1 mice) was 10, the ED50 [3] was 110 mg/kg and the “Mice Surviving” value ([3]; total dose 2.3 mg/kg oral) was 0. For the same compound, the “Mice Surviving” value ([3]; total dose 9.4 mg/kg oral) was 0, the “Mice Surviving” value ([3]; total dose 37.5 mg/kg oral) was 0 and the “Mice Surviving” value ([3]; total dose 150 mg/kg oral) was 7.
